Test results as given in article PMC10583824, “The rational design of ARUK2007145, a dual inhibitor of the α and γ isoforms of the lipid kinase phosphatidylinositol 5-phosphate 4-kinase (PI5P4K)” (RSC Medicinal Chemistry, 2023).

Experiments:
PI5P4Kα [1] = biological target: T1, PI5P4Kα (Homo sapiens, UniProt P48426); experiment: biochemical; details: ADP-Glo pIC50 PI5P4Kα, Table S1, two decimals; asterisk not explained
T1 sequence (P48426 1-406): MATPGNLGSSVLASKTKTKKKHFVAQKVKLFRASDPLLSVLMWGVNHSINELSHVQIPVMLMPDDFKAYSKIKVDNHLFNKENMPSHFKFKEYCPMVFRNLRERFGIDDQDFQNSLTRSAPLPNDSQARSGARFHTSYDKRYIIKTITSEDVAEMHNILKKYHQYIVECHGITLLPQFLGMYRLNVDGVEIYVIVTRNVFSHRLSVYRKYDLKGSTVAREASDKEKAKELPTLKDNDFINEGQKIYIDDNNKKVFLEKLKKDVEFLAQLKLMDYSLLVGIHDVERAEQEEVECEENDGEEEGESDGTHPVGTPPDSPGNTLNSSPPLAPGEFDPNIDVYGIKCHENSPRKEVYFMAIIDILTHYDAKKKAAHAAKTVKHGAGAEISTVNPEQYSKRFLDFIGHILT

PI5P4Kγ+ [2] = biological target: T2, PI5P4Kγ+ (Homo sapiens, UniProt Q8TBX8, D138G/D197E/E133P/E135D/E153T/E196G/G139A/N195G/S132L/S134N); experiment: biochemical
T2 sequence (Q8TBX8 with tags, fused parts or gaps INS131LPN/S132D/E133S/S134Q/E135A/G136R/D138G/G139A/E153T/N195G/E196G/D197E): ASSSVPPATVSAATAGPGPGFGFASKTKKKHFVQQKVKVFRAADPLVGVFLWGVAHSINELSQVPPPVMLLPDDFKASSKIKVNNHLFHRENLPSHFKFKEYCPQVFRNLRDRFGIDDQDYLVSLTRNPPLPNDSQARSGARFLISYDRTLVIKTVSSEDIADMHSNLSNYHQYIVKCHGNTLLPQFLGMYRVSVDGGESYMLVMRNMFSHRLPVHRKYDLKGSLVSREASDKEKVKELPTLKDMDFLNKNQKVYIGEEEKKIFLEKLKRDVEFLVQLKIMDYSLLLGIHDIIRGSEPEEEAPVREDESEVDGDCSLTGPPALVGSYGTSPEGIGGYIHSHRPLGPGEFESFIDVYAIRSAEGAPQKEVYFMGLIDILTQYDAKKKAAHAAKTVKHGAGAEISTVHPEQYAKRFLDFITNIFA

PI5P4Kα [3] = biological target: T1, PI5P4Kα; details: for PI5P4Kα pIC50: footnote a: inconsistent replicates, value shown is upper limit; for ADP-Glo pIC50 PI5P4Kα: Table S1, two decimals, asterisk not explained
PI5P4Kγ+ [4] = details: ratio PI5P4Kα IC50 / PI5P4Kγ+ IC50, ADP-Glo
[5] = ADP-Glo pIC50 PI5P4Kγ+, Table S1, two decimals, asterisk not explained
[6] = PI5P4Kγ+ pIC50, ADP-Glo, footnote a: inconsistent replicates, value shown is upper limit

| SMILES | IC50 (PI5P4Kα [1]) [nM] | IC50 (PI5P4Kγ+ [2]; [5]) [nM] | PI5P4Kα pIC50 (PI5P4Kα [3]; ADP-Glo) | IC50 (PI5P4Kγ+ [2]; [6]) [nM] | other results |
| --- | --- | --- | --- | --- | --- |
| COc1cnccc1-c1cc2c(Nc3ccc(C4CC4)cc3)ncnc2[nH]1 | 240 | 85.1 | – | – | – |
| COc1ccc(Nc2ncnc3sc(-c4cccnc4C)cc23)cc1 [Compound 20] | – | 1910 | 5.9 | 2000 | ADP-Glo pIC50 PI5P4Kα (PI5P4Kα [3]): 5.88; Fold-selectivity (α IC50/γ IC50) (PI5P4Kγ+ [4]): 0.69 |
| Cc1ccc(Nc2ncnc3sc(-c4cccnc4C)cc23)cc1 [Compound 22] | – | 1550 | 6.2 | 1580 | ADP-Glo pIC50 PI5P4Kα (PI5P4Kα [3]): 6.22; Fold-selectivity (α IC50/γ IC50) (PI5P4Kγ+ [4]): 0.4 |
| Cc1cc(Cl)ccc1Nc1ncnc2sc(-c3cccnc3Cl)cc12 [Cc1cc(ccc1Nc1ncnc2sc(cc12)-c1cccnc1Cl)Cl] | 5250 | 7940 | – | – | – |
| Cc1cc2c(Nc3ccc(Br)cc3)ncnc2s1 [Cc1cc2c(ncnc2s1)Nc1ccc(cc1)Br] | 6920 | – | – | – | – |
| COc1ncccc1-c1cc2c(Nc3ccc(S(C)(=O)=O)cc3)ncnc2s1 | 2290 | 28.8 | – | – | – |
| CS(=O)(=O)c1ccc(Nc2ncnc3sc(-c4ccc(F)cc4)cc23)cc1 | 9770 | 52.5 | – | – | – |
| COc1cnccc1-c1cc2c(Nc3ccc(C)cc3C)ncnc2s1 [COc1cnccc1-c1cc2c(ncnc2s1)Nc1ccc(cc1C)C] | 5010 | 7410 | – | – | – |
| Cc1ncccc1-c1cc2ncnc(Nc3ccc(S(F)(F)(F)(F)F)cc3)c2s1 [Compound 40] | – | – | 6.2 | 100 | Fold-selectivity (α IC50/γ IC50) (PI5P4Kγ+ [4]): 6.3 |
| CS(=O)(=O)c1ccc(Nc2ncnc3sc(C(F)F)cc23)cc1 | 8710 | 166 | – | – | – |
| Cc1sc2ncnc(Nc3ccc(S(C)(=O)=O)cc3)c2c1C [Compound 35] | – | – | <4.3 | 200 | Fold-selectivity (α IC50/γ IC50) (PI5P4Kγ+ [4]): >250 |
| COc1ccc(-n2ncc3c(Nc4ccc(OC)c(Cl)c4)ncnc32)cc1 [Compound 4, reference compound] | – | – | – | 12600 | Fold-selectivity (α IC50/γ IC50) (PI5P4Kγ+ [4]): 0.032 |
| O=C(NCc1cc2c(Nc3ccc(S(=O)(=O)C4CCCC4)cc3)ncnc2s1)c1ccc(C2(C(F)(F)F)N=N2)cc1 | 5250 | 39.8 | – | – | – |
| CS(=O)(=O)c1ccc(Nc2ncnc3sc(-c4cnoc4)cc23)cc1 | 2190 | 36.3 | – | – | – |
| CCc1cc2c(Nc3ccc(N4CCCC4=O)c(C)c3)ncnc2s1 [CCc1cc2c(ncnc2s1)Nc1ccc(c(c1)C)N1CCCC1=O] | 9770 | 288 | – | – | – |
| Cc1c(C(=O)O)sc2ncnc(Nc3ccc(C(C)C)cc3)c12 [CC(C)c1ccc(cc1)Nc1ncnc2sc(c(c12)C)C(=O)O] | 2750 | – | – | – | – |
| COc1cnccc1-c1cc2c(Nc3ccc(C)c(C)c3)ncnc2s1 | 275 | 631 | – | – | – |
| CSc1ccc(Nc2ncnc3cc(-c4c(C)noc4C)sc23)cc1 [CSc1ccc(cc1)Nc1ncnc2cc(sc12)-c1c(noc1C)C] | 22.4 | 32.4 | – | – | – |
| COc1cnccc1-c1cc2c(Nc3ccc(C4CC4)cc3)ncnc2s1 | 269 | 63.1 | – | – | – |
| CS(=O)(=O)c1ccc(Nc2ncnc3ccsc23)cc1 [Compound 36] | – | – | <4.3 | 50.1 | PI5P4Kα inhibition (in words) (PI5P4Kα [3]; ADP-Glo): undetectable |
| Cc1ncccc1-c1cc2c(Nc3ccc(C4CC4)cc3)ncnc2s1 [Compound 24] | – | 110 | 6.6 | 100 | ADP-Glo pIC50 PI5P4Kα (PI5P4Kα [3]): 6.62; Fold-selectivity (α IC50/γ IC50) (PI5P4Kγ+ [4]): 2.5 |
| CN(C(=O)c1csc2ncnc(Nc3ccc(S(C)(=O)=O)cc3)c12)c1ccccc1 [Compound 34] | – | – | 5.6 | 50.1 | Fold-selectivity (α IC50/γ IC50) (PI5P4Kγ+ [4]): 50 |
| CCc1ccc(Nc2ncnc3sc(-c4cccnc4Cl)cc23)cc1 [CCc1ccc(cc1)Nc1ncnc2sc(cc12)-c1cccnc1Cl] | 324 | 151 | – | – | – |
| CS(=O)(=O)c1ccc(Nc2ncnc3scc(C4CC4)c23)cc1 [Compound 33] | – | – | <4.8 | 100 | – |
| COc1cc(Nc2ncnc3sc(C)cc23)ccc1N1CCCC1=O [COc1cc(ccc1N1CCCC1=O)Nc1ncnc2sc(cc12)C] | 7240 | 214 | – | – | – |
